Measurements taken from US20250304567A1, “PYRROLIDIONE DERIVATIVES AS INHIBITORS OF NF KAPPA B INDUCING KINASE” (priority 2022, published 2025).
Read-outs that look alike come from different tables or passages of the source.

How the values were obtained:
[1] = test system: p-IKKa levels in L363 (NIK translocated multiple myeloma) cells; experiment: Effect of compounds on p-IKKa levels in L363 (NIK translocated multiple myeloma) cells (AlphaLISA SureFire Ultra p-IKKa Ser176/180); assay type: cell-based, human; conditions: average if tested more than once, read-out: Assay 2 IC50
Procedure, shortened: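 Phospho-IKKa (Ser176/180) in lysates quantified by AlphaLISA after 6 h compound exposure, 11-point threefold dilutions, 0.3% DMSO. L363 cells were pre-stimulated overnight and assayed with 250 ng/ml BAFF and 10 μM MG132; % inhibition fitted sigmoidally for IC50, duplicate curves.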

[2] = target: Recombinant Human NF-kappaB-Inducing Kinase (NIK/MAP3K14) (Homo sapiens, UniProt Q99558); experiment: Inhibition of auto-phosphorylation of recombinant human NIK/MAP3K14 activity (AlphaScreen); assay type: biochemical; conditions: 5 μM ATP, 1 nM NIK, average if tested more than once
Recombinant Human NF-kappaB-Inducing Kinase (NIK/MAP3K14), sequence (Q99558 whole entry): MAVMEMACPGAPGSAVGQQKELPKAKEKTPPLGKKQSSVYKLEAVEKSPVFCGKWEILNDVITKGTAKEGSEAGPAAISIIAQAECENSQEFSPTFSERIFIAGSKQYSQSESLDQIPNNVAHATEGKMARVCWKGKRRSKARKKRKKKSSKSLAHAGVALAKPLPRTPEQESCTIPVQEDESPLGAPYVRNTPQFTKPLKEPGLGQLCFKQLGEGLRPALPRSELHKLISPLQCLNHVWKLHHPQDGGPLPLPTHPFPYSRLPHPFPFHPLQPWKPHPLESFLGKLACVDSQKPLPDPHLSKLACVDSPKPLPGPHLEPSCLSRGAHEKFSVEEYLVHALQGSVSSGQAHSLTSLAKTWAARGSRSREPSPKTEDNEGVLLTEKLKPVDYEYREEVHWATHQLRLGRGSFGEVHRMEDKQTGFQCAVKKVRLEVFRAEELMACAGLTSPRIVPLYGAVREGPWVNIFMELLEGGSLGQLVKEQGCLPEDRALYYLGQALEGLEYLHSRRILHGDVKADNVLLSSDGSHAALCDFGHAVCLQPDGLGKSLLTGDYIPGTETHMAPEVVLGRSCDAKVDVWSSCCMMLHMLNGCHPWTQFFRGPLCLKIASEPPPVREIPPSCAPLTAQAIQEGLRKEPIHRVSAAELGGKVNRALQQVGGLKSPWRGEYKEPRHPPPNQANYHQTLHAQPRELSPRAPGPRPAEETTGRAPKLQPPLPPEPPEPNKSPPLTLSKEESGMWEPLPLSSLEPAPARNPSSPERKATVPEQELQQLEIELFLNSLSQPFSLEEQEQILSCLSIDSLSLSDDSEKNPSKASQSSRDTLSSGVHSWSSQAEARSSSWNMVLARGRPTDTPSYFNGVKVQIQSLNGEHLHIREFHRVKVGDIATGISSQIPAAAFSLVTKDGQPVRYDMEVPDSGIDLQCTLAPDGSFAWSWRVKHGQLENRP
Procedure, shortened: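 AlphaScreen detection of phospho-Ser176/180 after 1 nM GST-NIK auto-phosphorylates for 2 h at 25 °C with 5 μM ATP (50 mM Tris pH 7.5, 0.7% DMSO). IC50s come from sigmoidal curves of % inhibition against log dose, using enzyme-free, ATP-free low controls and full-activity high controls.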

[3] = Homo sapiens, L-363, p-IKKa levels in L363 cells

Cc1cccnc1CNc1nccc(-c2csc(-c3cccc([C@]4(O)CCN(C)C4=O)c3)n2)n1 [Example 206]
IC50 [1, 3]: > 501 nM
IC50 [2]: < 100 nM

CCn1cc(Nc2nccc(-c3csc(-c4cccc([C@]5(O)CCN(C)C5=O)c4)n3)n2)c(OC)n1 [Example 103, (R)-3-(3-(4-(2-((1-ethyl-3-methoxy-1H-pyrazol-4-yl)amino)pyrimidin-4-yl)thiazol-2-yl)phenyl)-3-hydroxy-1-methylpyrrolidin-2-one]
IC50 [1, 3]: 100 to 500 nM
IC50 [2]: < 100 nM

CCc1cc(Nc2nccc(-c3csc(-c4cccc([C@]5(O)CCN(C)C5=O)c4)n3)n2)ncn1 [Example 70, (R)-3-(3-(4-(2-((6-ethylpyrimidin-4-yl)amino)pyrimidin-4-yl)thiazol-2-yl)phenyl)-3-hydroxy-1-methylpyrrolidin-2-one]
IC50 [1, 3]: > 501 nM
IC50 [2]: < 100 nM

CN1CCn2nc(Nc3nccc(-c4csc(-c5cccc([C@]6(O)CCN(C)C6=O)c5)n4)n3)cc2C1=O [Example 53, (R)-2-((4-(2-(3-(3-Hydroxy-1-methyl-2-oxopyrrolidin-3-yl)phenyl)thiazol-4-yl)pyrimidin-2-yl)amino)-5-methyl-6,7-dihydropyrazolo[1,5-a]pyrazin-4(5H)-one]
IC50 [1, 3]: 100 to 500 nM
IC50 [2]: < 100 nM

C[C@@H](Nc1nccc(-c2nc(-c3cc([C@]4(O)CCN(C)C4=O)ccn3)cs2)n1)c1ccn(C)n1 (single isomer, unassigned) [Example 157, (R)-3-hydroxy-1-methyl-3-(2-(2-(2-(((R)-1-(1-methyl-1H-pyrazol-3-yl)ethyl)amino)pyrimidin-4-yl)thiazol-4-yl)pyridin-4-yl)pyrrolidin-2-one or (S)-3-hydroxy-1-methyl-3-(2-(2-(2-(((R)-1-(1-methyl-1H-pyrazol-3-yl)ethyl)amino)pyrimidin-4-yl)thiazol-4-yl)pyridin-4-yl)pyrrolidin-2-one]
IC50 [1, 3]: > 501 nM
IC50 [2]: 100 to 500 nM

CN1CC[C@@](O)(c2cccc(-c3nc(-c4ccnc(NCc5ncccn5)n4)cs3)c2)C1=O [Example 218]
IC50 [1, 3]: > 501 nM
IC50 [2]: 100 to 500 nM

CN1CC[C@@](O)(c2cccc(-c3nc(-c4ccnc(N[C@@H]5CCC[C@H]5O)n4)cs3)c2)C1=O [Example 216]
IC50 [1, 3]: > 501 nM
IC50 [2]: 100 to 500 nM

CN1CC[C@@](O)(c2cccc(-c3csc(-c4ccnc(Nc5cnn6cccnc56)n4)n3)c2)C1=O [Example 85, (R)-3-hydroxy-1-methyl-3-(3-(2-(2-(pyrazolo[1,5-a]pyrimidin-3-ylamino)pyrimidin-4-yl)thiazol-4-yl)phenyl)pyrrolidin-2-one]
IC50 [1, 3]: < 100 nM
IC50 [2]: < 100 nM

CC(Nc1nccc(-c2csc(-c3cccc([C@]4(O)CCN(C)C4=O)c3)n2)n1)c1nc2ccccc2[nH]1 (stereo partly drawn) [Example 45, (R)-3-(3-(4-(2-(((R,S)-1-(1H-benzo[d]imidazol-2-yl)ethyl)amino)pyrimidin-4-yl)thiazol-2-yl)phenyl)-3-hydroxy-1-methylpyrrolidin-2-one]
IC50 ([1]; p-IKKa levels in L363 cells): > 501 nM
IC50 [2]: < 100 nM

CN1CC[C@@](O)(c2cccc(-c3nc(-c4ccnc(Nc5cn(CC(F)F)nc5OC5CC5)n4)cs3)c2)C1=O [Example 9, (R)-3-(3-(4-(2-((3-Cyclopropoxy-1-(2,2-difluoroethyl)-1H-pyrazol-4-yl)amino)pyrimidin-4-yl)thiazol-2-yl)phenyl)-3-hydroxy-1-methylpyrrolidin-2-one]
IC50 [1, 3]: < 100 nM
IC50 [2]: < 100 nM

CCn1ccc(Nc2nccc(-c3csc(-c4cccc([C@]5(O)CCN(C)C5=O)c4)n3)n2)n1 [Example 76, (R)-3-(3-(4-(2-((1-ethyl-1H-pyrazol-3-yl)amino)pyrimidin-4-yl)thiazol-2-yl)phenyl)-3-hydroxy-1-methylpyrrolidin-2-one]
IC50 [1, 3]: 100 to 500 nM
IC50 [2]: < 100 nM

CN1CC[C@@](O)(c2cccc(-c3nc(-c4ccnc(NC5CCOCC5)n4)cs3)c2)C1=O [Example 181]
IC50 [1, 3]: > 501 nM
IC50 [2]: 100 to 500 nM

CN1CC[C@@](O)(c2cccc(-c3nc(-c4ccnc(NCc5ncco5)n4)cs3)c2)C1=O [Example 111, (R)-3-hydroxy-1-methyl-3-(3-(4-(2-((oxazol-2-ylmethyl)amino)pyrimidin-4-yl)thiazol-2-yl)phenyl)pyrrolidin-2-one]
IC50 [1, 3]: > 501 nM
IC50 [2]: < 100 nM

CN1CC[C@@](O)(c2cccc(-c3nc(-c4ccnc(NCCCN5CCOCC5)n4)cs3)c2)C1=O [Example 246]
IC50 [1, 3]: > 501 nM
IC50 [2]: > 501 nM

CN1CC[C@@](O)(c2cccc(-c3nc(-c4ccnc(NCCNS(C)(=O)=O)n4)cs3)c2)C1=O [Example 237]
IC50 [1, 3]: > 501 nM
IC50 [2]: < 100 nM

CN1CC[C@@](O)(c2cccc(-c3nc(-c4ccnc(Nc5cc(C6CC6)nn5C)n4)cs3)c2)C1=O [Example 164, (R)-3-(3-(4-(2-((3-Cyclopropyl-1-methyl-1H-pyrazol-5-yl)amino)pyrimidin-4-yl)thiazol-2-yl)phenyl)-3-hydroxy-1-methylpyrrolidin-2-one]
IC50 [1, 3]: 100 to 500 nM
IC50 [2]: < 100 nM

Cc1nn(C)cc1Nc1nccc(-c2csc(-c3cccc([C@]4(O)CCN(C)C4=O)c3)n2)n1 [Example 269, (R)-3-(3-(4-(2-((1,3-dimethyl-1H-pyrazol-4-yl)amino)pyrimidin-4-yl)thiazol-2-yl)phenyl)-3-hydroxy-1-methylpyrrolidin-2-one]
IC50 [1, 3]: < 100 nM
IC50 [2]: < 100 nM

CN1CC[C@@](O)(c2cccc(-c3nc(-c4ccnc(Nc5ccccn5)n4)cs3)c2)C1=O [Example 77, (R)-3-hydroxy-1-methyl-3-(3-(4-(2-(pyridin-2-ylamino)pyrimidin-4-yl)thiazol-2-yl)phenyl)pyrrolidin-2-one]
IC50 [1, 3]: > 501 nM
IC50 [2]: < 100 nM

CC(C)n1nccc1Nc1nccc(-c2csc(-c3cccc([C@]4(O)CCN(C)C4=O)c3)n2)n1 [Example 66, (R)-3-hydroxy-3-(3-(4-(2-((1-isopropyl-1H-pyrazol-5-yl)amino)pyrimidin-4-yl)thiazol-2-yl)phenyl)-1-methylpyrrolidin-2-one]
IC50 [1, 3]: > 501 nM
IC50 [2]: 100 to 500 nM

CN1CC[C@@](O)(c2cccc(-c3nc(-c4ccnc(Nc5cc(C(F)(F)F)n(C)n5)n4)cs3)c2)C1=O [Example 256, (R)-3-Hydroxy-1-methyl-3-(3-(4-(2-((1-methyl-5-(trifluoromethyl)-1H-pyrazol-3-yl)amino)pyrimidin-4-yl)thiazol-2-yl)phenyl)pyrrolidin-2-one]
IC50 [1, 3]: > 501 nM
IC50 [2]: < 100 nM

CCn1cc(Nc2nccc(-c3csc(-c4cccc([C@]5(O)CCN(C)C5=O)c4)n3)n2)c(C)n1 [Example 270, (R)-3-(3-(4-(2-((1-Ethyl-3-methyl-1H-pyrazol-4-yl)amino)pyrimidin-4-yl)thiazol-2-yl)phenyl)-3-hydroxy-1-methylpyrrolidin-2-one]
IC50 [1, 3]: < 100 nM
IC50 [2]: < 100 nM

CN1CC[C@@](O)(c2cccc(-c3nc(-c4ccnc(Nc5cn(C)nc5C(F)(F)F)n4)cs3)c2)C1=O [Example 280, (R)-3-Hydroxy-1-methyl-3-(3-(4-(2-((1-methyl-3-(trifluoromethyl)-1H-pyrazol-4-yl)amino)pyrimidin-4-yl)thiazol-2-yl)phenyl)pyrrolidin-2-one]
IC50 [1, 3]: 100 to 500 nM
IC50 [2]: < 100 nM

COC[C@@H](Nc1nccc(-c2nc(-c3cccc([C@]4(O)CCN(C)C4=O)c3)cs2)n1)c1ccnn1C (single isomer, unassigned) [Example 130]
IC50 [1, 3]: 100 to 500 nM
IC50 [2]: < 100 nM

CN1CC[C@@](O)(c2cccc(-c3nc(-c4ccnc(Nc5ccon5)n4)cs3)c2)C1=O [Example 266, (R)-3-Hydroxy-3-(3-(4-(2-(isoxazol-3-ylamino)pyrimidin-4-yl)thiazol-2-yl)phenyl)-1-methylpyrrolidin-2-one]
IC50 [1, 3]: 100 to 500 nM
IC50 [2]: < 100 nM

COc1c(Nc2nccc(-c3csc(-c4cccc([C@]5(O)CCN(C)C5=O)c4)n3)n2)ccnc1C [Example 74, (R)-3-hydroxy-3-(3-(4-(2-((3-methoxy-2-methylpyridin-4-yl)amino)pyrimidin-4-yl)thiazol-2-yl)phenyl)-1-methylpyrrolidin-2-one]
IC50 [1, 3]: > 501 nM
IC50 [2]: 100 to 500 nM

CN1CC[C@@](O)(c2cccc(-c3nc(-c4ccnc(N[C@@H]5[C@@H]6COC[C@@H]65)n4)cs3)c2)C1=O [Example 214]
IC50 [1, 3]: > 501 nM
IC50 [2]: 100 to 500 nM

COc1cccnc1Nc1nccc(-c2csc(-c3cccc([C@]4(O)CCN(C)C4=O)c3)n2)n1 [Example 161, (R)-3-Hydroxy-3-(3-(4-(2-((3-methoxypyridin-2-yl)amino)pyrimidin-4-yl)thiazol-2-yl)phenyl)-1-methylpyrrolidin-2-one]
IC50 [1, 3]: > 501 nM
IC50 [2]: > 501 nM

CN1CC[C@@](O)(c2ccnc(-c3ccn(-c4ccnc(Nc5cnn6cccnc56)n4)n3)c2)C1=O (single isomer, unassigned) [Example 149, (R)-3-hydroxy-1-methyl-3-(2-(1-(2-(pyrazolo[1,5-a]pyrimidin-3-ylamino)pyrimidin-4-yl)-1H-pyrazol-3-yl)pyridin-4-yl)pyrrolidin-2-one or (S)-3-hydroxy-1-methyl-3-(2-(1-(2-(pyrazolo[1,5-a]pyrimidin-3-ylamino)pyrimidin-4-yl)-1H-pyrazol-3-yl)pyridin-4-yl)pyrrolidin-2-one]
IC50 [1, 3]: > 501 nM
IC50 [2]: < 100 nM
